# According to US10588972B2, “Phthalocyanine probes and uses thereof” (LI-COR, INC., priority 2014, dated 2020):
# Tests used:
# Assay type in all cases: cell-based
# A431 cells = assay: VB-48 assay: vitality, viability and necrosis of treatments 1-10 (Table 3)
# Description: Briefly, A431 cells were labeled with respective probes for specific treatments (listed below); cells were rinsed and evaluated for labeling. The test include the following treatments: […], treatments 3-4 of EGF-IRDye® 700DX at 0.5 μM and radiation, treatments 5-6 of IRDye® 700DX NHSe at 5 μM and radiation, treatments 7-8 of panitumumab-IRDye® 700DX at about 0.1 μM and radiation, treatment 9 of a negative control with no probe and no irradiation, and treatment 10 of RGD-IRDye® 700DX and no irradiation. The probes were incubated for about 10 minutes and with a longer period of about 20 minutes for the RGD probe. The cells were monitored with microscopy and morphology was examination 24 hours post treatment.
# Low binding was expected for the RGD probe due to the low level of integrin receptors on A431 cells. […] By 3 hours post-irradiation all treatments except RGD (Treatment 1) show significant cytotoxicity. Vitality, viability and necrosis assays such as a VB-48 assay and JC-1 assay were performed.
# HTB-186 cells [1] = assay: Viability, cell number and microscopy morphology at 20 h post irradiation (Example 10)
# Description: This example illustrates the ability of IRDye® 700DX small molecule conjugates to induce apoptosis in cells, e.g., cancer cells. In this study HTB-186 cells (a desmoplastic cerebellar medulloblastoma cell line) were treated with IRDye® 700DX small molecule conjugates (IRDye® 700DX labeled chlorotoxin, anti-EGFR Affibody®, RGD peptide and EGF ligand). Apoptosis was measured by evaluating caspase 3/7 activity and mitochondrial membrane potential. Apoptosis can be characterized by a variety of cell morphological and biochemical changes including membrane blebbing, cell shrinkage, alteration of membrane asymmetry and permeability, and/or condensation of chromatin and nucleus (Coleman et al., Nat Cell Biol, 2001, 3(4):339-45, Bortner and Cidlowski, Biochem Pharmacol, 1998, 56(12):1549-59; van Engeland et al., Experimental Cell Research, 1997, 235:421-430).
# Microscopy images of cells in petri-dishes were captured at 20 h post irradiation. The images were captured in DIC and 700 nm to visualize the probe, and composite images were generated (DIC+700 nm) to visualize the overlay.
# (§1) To determine whether the treated cells are undergoing apoptosis, a caspase 3/7 assay and mitochondrial potential assay were performed. […] Table 8 below provides cells number, % viability, JC-1% shift, and % late apoptotic and dead cells as determined by caspase 3/7 assay.
# HTB-186 cells [2] = assay: JC-1 mitochondrial membrane potential assay (Example 10, Table 8); settings: 32 J/cm^2, probe about 5 hours, 20 hours post irradiation; 700DX-RGD and 700DX-EGF 500 nM
# Description: (§2) This example illustrates the ability of IRDye® 700DX small molecule conjugates to induce apoptosis in cells, e.g., cancer cells. In this study HTB-186 cells (a desmoplastic cerebellar medulloblastoma cell line) were treated with IRDye® 700DX small molecule conjugates (IRDye® 700DX labeled chlorotoxin, anti-EGFR Affibody®, RGD peptide and EGF ligand). Apoptosis was measured by evaluating caspase 3/7 activity and mitochondrial membrane potential. […]
# In this study a mitochondrial membrane potential assay was performed on cells from treatments 1-8 to determine whether the treated cells underwent apoptosis. […] As JC-1 dye accumulated in mitochondria, its fluorescence emission shifts from green (about 529 nm) to red (about 590 nm). The presence of red fluorescence due to JC-1 aggregate formation corresponds to regions of high mitochondrial polarization. Depolarized mitochondria are indicated by green fluorescence of the JC-1 monomers. A detectable decrease in the red/green fluorescence intensity ratio indicates mitochondrial depolarization, and thus, apoptosis. In a membrane potential assay, cells are incubated with the JC-1 dye and fluorescence is detected by, for example, flow cytometry, fluorescence microscopy, and fluorescence-based image cytometry. […]
# HTB-186 cells [3] = assay: Caspase 3/7 assay (Example 10, Table 8); settings: 32 J/cm^2, probe about 5 hours, 20 hours post irradiation; 700DX-RGD and 700DX-EGF 500 nM
# Description: as §2
# The caspase 3/7 assay was used to measure caspase 3/7 activity in the cells from the treatments listed above. […] Upon activation, the caspases cleave the substrate, and in turn, a fluorescence signal is emitted. […] The fluorescence can be detected by, for example, flow cytometry, fluorescence microscopy, and fluorescence-based image cytometry.
# as §1
# [4] = irradiated (I) 32 J/cm^2, RGD 0.5 μM, EGF 0.5 μM, NHSe 5 μM, Pan ~0.1 μM
# [5] = no irradiation (NI), RGD-700DX 0.5 μM
smiles,measurement,setting,value
C[Si](C)(CCC[N+](CCCS(=O)(=O)O)(CCCS(=O)(=O)O)CCCS(=O)(=O)O)O[Si-2]123(O[Si](C)(C)CCC[N+](CCCS(=O)(=O)O)(CCCS(=O)(=O)O)CCCS(=O)(=O)O)n4c5c6ccccc6c4N=C4c6cccc(OCCCOC(=O)NCCCCCC(=O)NCCCC[C@@H]7NC(=O)[C@@H](Cc8ccccc8)NC(=O)[C@H](CC(=O)O)NC(=O)CNC(=O)[C@H](CCCNC(=N)N)NC7=O)c6C(=[N+]41)N=c1c4ccccc4c(n12)=NC1=[N+]3C(=N5)c2ccccc21 [RGD-700DX],% Healthy,A431 cells; [4],91.6%
same,% Necrotic,A431 cells; [4],7%
same,Cells/mL,A431 cells; [4],6.6 × 10^5 Cells/mL
same,Low % Vitality,A431 cells; [4],2%
same,% Healthy,A431 cells; [5],90.8%
same,% Necrotic,A431 cells; [5],5%
same,Cells/mL,A431 cells; [5],5.8 × 10^5 Cells/mL
same,Low % Vitality,A431 cells; [5],4%
same,cell morphology,"HTB-186 cells [1]; 32 J/cm^2, 20 h post irradiation",appeared rounded and smaller
same,Cell #,"HTB-186 cells [1]; 32 J/cm^2, probe about 5 hours, 20 hours post irradiation, 700DX-RGD and 700DX-EGF 500 nM",0.6E6
same,JC-1 % shift,HTB-186 cells [2],44%
same,Caspase 3 % late apoptotic + dead cells,HTB-186 cells [3],57%
